The source of these data is US12221494B2, “Short synthetic peptides and their uses for treating retinal degenerative diseases and/or tissue injuries” (MacKay Memorial Hospital, priority 2019, dated 2025).

In test [1] the test system is Sprague-Dawley rats, retinal ischemia/reperfusion (I/R) injury. Kind of test: TUNEL staining of I/R-injured rat retina (20 h). The test is classed as in vivo. The protocol: (§1) Experimental procedures were approved by the Mackay Memorial Hospital Review Board (Taiwan, R.O.C.). All surgeries were performed under aseptic conditions. Adult 10-week-old male Sprague-Dawley rats (initial body weight=312±11 g) were anesthetized by an intraperitoneal injection of xylazine (10 mg/kg). Peptide was dissolved in 0.85% normal saline to 1 mM and delivered by the subconjunctival injection of 100 μL peptide through a 31-Gneedle with a micro-syringe before the induction of I/R. Normal saline was as a vehicle control. Rat I/R was performed after peptide or vehicle injection for 4 h. Pupils were dilated with 0.5% tropicamide and 0.5% phenylephrine. Body temperature was maintained at 37° C. using a heating blanket After dilation of the pupil, the anterior chamber of the right eye was cannulated with a 27-gauge needle connected to a physiological saline reservoir. The intraocular pressure (IOP) was raised to 110 mmHg by keeping the reservoir at 150 cm above the eye, and retinal ischemia was confirmed by observing whitening of the iris and the loss of the red reflex of the retina. After 90 min of ischemia, the cannulating needle was withdrawn and the IOP was returned to normal pressure, resulting in recovery of the blood supply from the retinal artery and reperfusion injury induced. The reperfusion was evident by the return of the red reflex. Corneal analgesia was achieved using 1 or 2 drops of 0.4% oxybuprocaine hydrochloride, and Ofloxacin ophthalmic gel (0.3%) was applied topically to the eye before and after the procedure. Only the right eye was used in all experiments. A sham procedure was performed at left eye served as an intra-animal control.
After I/R for 20 h, rats (n=6 in each group) were euthanized by an overdose of pentobarbital. Enucleated eyeballs were fixed in 4% PFA for 24 h at 4° C. Fixed retinal tissues were embedded in paraffin. To identify apoptosis of retinal cells, 5 μm sections thick cut through the optic disc, de-paraffinized, rehydrated, incubatedwith 20 μg/mL proteinase K for 10 min, and immunofluorescence staining of apoptotic cells was performed using a terminal deoxynucleotidyl transferase(TdT)-mediated dUTP nick-end labeling (TUNEL)-based kit (Roche Molecular Biochemicals, Indianapolis, IN) according to the manufacturer's instructions. Nuclei were located by counterstaining with Hoechst 33258 for 7 min Sections were observed under an epifluorescence microscope (Zeiss Axioplan 2 imaging; Zeiss, Oberkochen, Germany) equipped with a charge-coupled device (CCD) camera (Zeiss AxioCam HRm, Zeiss) (×400, 6 fields/sample), and quantification was performed using Axiovert software (Zeiss AxioVision Release 4.8.2, Zeiss). Three sections per eye were averaged and the mean of six eyes was recorded as the representative value for each group.
In this example, the neuroprotective effect of the 6-mer variant peptides on neural retina cells and retinal capillary system was investigated using a rat model of I/R injury described in the “Material and Methods” section. Briefly, 6-mer variant peptide (1 mM, 120 μl) was injected into the subconjunctival space of Sprague-Dawley rats for 4 h before the induction of I/R. Then, I/R injury was induced in rat retinas by increasing the intraocular pressure (IOP) in the eye to 110 mmHg for 90 min, followed by 20 h of reperfusion. Subsequently, the level of retinal cell apoptosis was evaluated using TUNEL staining. In addition, the retinal morphology was analyzed with H&E staining 14 days after the I/R injury. Results are summarized in FIGS. 6 to 10, and Tables 6 to 9.

Test [2] shares this test system. Kind of test: Immunofluorescence staining of retinal microglia/astrocytes 14 days after I/R injury. Type of test: in vivo. To be noted: rat. The protocol: as §1, with “Only the right eye was used in all experiments. A sham procedure was performed at left eye served as an intra-animal control.” left out
Deparaffinized retinal sections were blocked with 10% goat serum and 5% bovine serum albumin (BSA) in PBS containing 0.5% TritonX-100 (PBST) for 20 min at room temperature for blocking nonspecific staining. […] The slides were then rinsed with PBST three times, mounted with FluorSave™ reagent (Calbiochem) and viewed with an epifluorescence microscope (Zeiss Axioplan 2 imaging; Zeiss, Oberkochen, Germany) Three sections per eye were averaged and the mean of six eyes was recorded as the representative value for each group.

Test [3] relates to STZ-induced diabetic mice. Description: Vascular abnormalities (FITC-BSA hemorrhaging areas) in the retina of STZ-induced diabetic mice. Type of test: in vivo, mouse. To be noted: 200 μM eye drop three times a day for 14 days, vehicle control 8.2±1.5. The protocol: Diabetic mice were generated by intraperitoneal injection of streptozotocin (STZ; 200 mg/kg body weight) at day 1 and day 3. STZ was freshly prepared in 0.1 M citrate buffer (pH 4.5). After injection, mice were supplied with 10% sucrose overnight to prevent sudden hypoglycaemic shock. After 1 week (day 7), mice with non-fasting blood glucose levels >500 mg/dl were defined as diabetic and used for the experiments. Balanced salt solution (BSS) was served as peptide vehicle (Alcon, Novartis). 6-mer analogues (dissolved in BSS to 200 μM) eye drop were topically administered to eyes three times a day. After 2 weeks (day 14), mice were intraperitoneal injection of 100 mg/kg of FITC-BSA for further 30 min to determine vascular lesions (hemorrhaging areas) in retina. Subsequently, the animals were euthanized by CO2 inhalation, and the eyes were enucleated and fixed with 4% PFA for overnight at 4° Cand flat-mounted onto glass slides to obtain optical sections. Vascular lesions in the retina was scored in all four retinal quadrants of flat mounts by an epifluorescence microscopy at 200×. Three microscopic fields were sampled in each quadrant in both the central and peripheral retina, and data were presented as the average number of lesions/retina.
Microscopic appearance of degenerate capillaries in the I/R-induced retina are similar to that of acellular capillaries found in diabetic retinopathy. […]

The test system of test [4] is survivin mRNA. Kind of test: Real-time qPCR of survivin mRNA in C2C12 cells. The test is classed as cell-based, mouse. Particulars: stimulated for 3 h. For orientation: Quantitative PCR measures a nucleic acid by following its amplification.

“NH2-(D-Ser)-Leu-Gly-Ala-Glu-Gln-COOH (SLGAEQ; HELM PEPTIDE1{[dS].L.G.A.E.Q}$$$$V2.0; SMILES CC(C)C[C@H](NC(=O)[C@H](N)CO)C(=O)NCC(=O)N[C@@H](C)C(=O)N[C@@H](CCC(=O)O)C(=O)N[C@@H](CCC(N)=O)C(=O)O) [6-mer dS]”: in test [1] (subconjunctival injection 1 mM 4 h before I/R, 20 hours after I/R injury, Vehicle + I/R 27.2 ± 2.7), the “Number of TUNEL-positive cells in retina” value is listed as 7.8 ± 1.5 /200 μm. Further, the “I/R-induced retinal cell apoptosis (TUNEL staining), in words” value in test [1] (subconjunctival injection prior to I/R, 20 h reperfusion) is on record as “only smaller numbers of green fluorescent nuclei”. The “activation of Iba-1-positive microglial cells and GFAP-positive astrocytes, in words” value in test [2] was “less prominent”. In addition, in test [2] (Control 3.3 ± 1.2, Vehicle + I/R 24.7 ± 1.6), the “Iba-1-positive Microglia” value is on record as 5.8 ± 1.0 /400 × field. Besides, the “GFAP-positive astrocytes” value in test [2] (Control 6.9 ± 2.0, Vehicle + I/R 28.6 ± 2.2) is given as 10.3 ± 1.8 /400 × field. Besides, the “numbers of vascular lesions (hemorrhaging areas in a retina)” value in test [3] came to 2.8±0.6 lesions/retina. Further, the “level of survivin mRNA compared to solvent-treated cells” value in test [4] stood at 2.6 fold.
